In patent publication US6444684B1 (priority 1993, dated 2002):
Read-outs that look alike come from different tables or passages of the source.

Legend:
HIV-RT = HIV-RT (Human immunodeficiency virus type 1 group M subtype B, UniProt P03366); assay: HIV-RT inhibition by AZT-TP, lavendamycin analogs and their combinations; assay type: biochemical; design: unit of the concentration uncertain; details: AZT-TP Conc. 0 (unit uncertain); for % inh. ave.: average of three trials
Text: AZT-TP was used for these in vitro studies since AZT is naturally phosphorylated in vivo.
The results of these tests are given in Table XVIII and XIX below, where the percent inhibition of HIV-RT activity is reported for three different trials and then averaged in the seventh column. […] .

[1] = tested on: Non-Small Cell Lung Cancer cell lines; assay: NCI in vitro anticancer screen (SRB), non-small cell lung cancer subpanel; details: 48 hours exposure; average percent growth over the cell lines
Description: (§1) Compounds chosen for the program are initially tested in an in vitro anticancer screen. A total of fifty-five human tumor cell lines, derived from nine cancer types (lung, colon, melanoma, renal, ovarian, brain, prostate, breast and leukemia), are used in this screen. The tumor cells are inoculated over a series of standard 96-well microtiter plates on day 0. These cells are then preincubated on the microtiter plates for 24 hours. The test compounds are added to the wells in five 10-fold dilutions starting from the highest soluble concentration. Each compound is tested against every cell line in the panel. The compounds are incubated for 48 hours with the tumor cell lines. At the termination of the assay, the cells are fixed in situ, washed, and dried. Sulforhodamine B (SRB), a pink anionic dye that binds to the basic amino acids of trichloroacetic acid-fixed cells, is added. The cells are washed again, and the remaining dye is a function of the adherent cell mass. The bound stain is solubilized and measured spectrophotometrically. The data are entered from automatic reading devices into a computer for subsequent storage and analysis.
(§2) The measured effect of each test compound on the cell lines is calculated according to one or the other of the following two expressions:
(§3) If (Mean ODtest−Mean ODtzero)□0, then PG=100×(Mean ODtest−Mean ODtzero)/(Mean ODctrl−Mean ODtzero);
(§4) If (Mean ODtest−Mean ODtzero)<0, then PG=100×(Mean ODtest−Mean ODtzero)/Meantzero;
(§5) First, a data sheet is provided which lists, for each cell line, the Mean ODtzero, the Mean ODctrl, the Mean ODtest for each of the five concentrations, the calculated PGs for each concentration, and the response parameters G150, TGI, and LC50.
(§6) Third, mean graphs at each of the principal response parameters (GI50, TGI, and LC50) are provided. […] Since the bar scale is logarithmic, a bar two units to the right implies the compound achieved the response parameter (e.g., GI50) for the cell line at a concentration 1/100 the mean concentration required over all cell lines, and thus the cell line is unusually sensitive to that compound. Bars extending to the left correspondingly imply sensitivity less than the mean. Thus, the mean graphs facilitate visual scanning of data for potential patterns of selectivity for particular cell lines or for particular subpanels with respect to a selected response parameter.

Melanoma cell lines = assay: NCI in vitro anticancer screen (SRB), melanoma subpanel; details: 48 hours exposure; average percent growth over the cell lines
Description: as §1, §2, §3, §4, §5, §6

CNS Cancer cell lines = assay: NCI in vitro anticancer screen (SRB), CNS cancer subpanel; details: 48 hours exposure; average percent growth over the cell lines
Description: as §1, §2, §3, §4, §5, §6

Colon Cancer cell lines = assay: NCI in vitro anticancer screen (SRB), colon cancer subpanel; details: 48 hours exposure; average percent growth over the cell lines
Description: as §1, §2, §3, §4

Breast Cancer cell lines = assay: NCI in vitro anticancer screen (SRB), breast cancer subpanel; details: 48 hours exposure; average percent growth over the cell lines
Description: as §1, §2, §3, §4

[2] = tested on: Ovarian Cancer cell lines; assay: NCI in vitro anticancer screen (SRB), ovarian cancer subpanel; details: 48 hours exposure; average percent growth over the cell lines
Description: as §1, §2, §3, §4

[3] = tested on: normal rat kidney epithelial (NRKE) cells
[4] = tested on: N/4.2-NRKE transformed by the human ras^N gene; details: for Differential Index N/4.2: N/4.2 = ras^N transformed NRK cells, compared with normal NRKE cells
[5] = tested on: K/1 = ras^K Transformed NRKE Cells; details: for Differential Index K/1: K/1 = ras^K transformed NRKE cells, compared with normal NRKE cells
[6] = tested on: H/1.2 = ras^H Transformed NRKE Cells; details: for Differential Index H/1.2: H/1.2 = ras^H transformed NRKE cells, compared with normal NRKE cells
[7] = tested on: Prostate Cancer cell lines; assay: NCI in vitro anticancer screen (SRB), prostate cancer subpanel; details: 48 hours exposure; average percent growth over the cell lines
Description: as §1, §2, §3, §4

[8] = tested on: 3LL = Lewis Lung Carcinoma Cells; details: for Differential Index 3LL: 3LL = Lewis lung carcinoma cells, compared with normal NRKE cells
Renal Cancer cell lines = assay: NCI in vitro anticancer screen (SRB), renal cancer subpanel; details: for Activity (Average PG for highest dose tested) Renal Cancer: 48 hours exposure, average percent growth over the cell lines
Description: as §1, §2, §3, §4, §5, §6

Leukemia cell lines = assay: NCI in vitro anticancer screen (SRB), leukemia subpanel; details: for Activity (Average PG for highest dose tested) Leukemia: 48 hours exposure, average percent growth over the cell lines
Description: as §1, §2, §3, §4, §5, §6

[9] = tested on: 3LL = Lewis Lung Carcinoma Cells; assay: cells; details: Mus musculus
[10] = tested on: N/4.2-NRKE transformed by the human ras^N gene; assay: cells; details: N42, read-out: LC50 N/4.2
[11] = tested on: K/1 = ras^K Transformed NRKE Cells; assay: cells; details: Rattus norvegicus, read-out: LC50 K/1
[12] = tested on: H/1.2 = ras^H Transformed NRKE Cells; assay: cells; details: Rattus norvegicus, read-out: LC50 H/1.2
in vitro = details: rat, LC50 NRKE
ras oncogene p21 protein = details: U.S. Pat. No. 5,158,960; Liu et al.; cited from earlier work
[13] = tested on: K/1-NRKE tumor (ras^K-transformed NRKE cells)
[14] = found by other investigators; cited from earlier work
[15] = read-out: LC50 3LL, Table XV (Example 51)
[16] = 120 h, read-out: LC50 3LL, Table VII, concentration giving 50% cell kill, 5 days exposure

| SMILES | Activity (Average PG for highest dose tested) Non-Small Cell Lung Cancer [1] | Activity (Average PG for highest dose tested) Melanoma (Melanoma cell lines) | Activity (Average PG for highest dose tested) CNS Cancer (CNS Cancer cell lines) | Activity (Average PG for highest dose tested) Colon Cancer (Colon Cancer cell lines) | Activity (Average PG for highest dose tested) Breast Cancer (Breast Cancer cell lines) | Activity (Average PG for highest dose tested) Ovarian Cancer [2] | Differential Index N/4.2 [4] | Differential Index K/1 [5] | Differential Index H/1.2 [6] | Activity (Average PG for highest dose tested) Prostate Cancer [7] | Differential Index 3LL [8] | Activity (Average PG for highest dose tested) Renal Cancer (Renal Cancer cell lines) | Activity (Average PG for highest dose tested) Leukemia (Leukemia cell lines) | CC50 [9, 15] [µM] | CC50 [10] [µM] | CC50 [11] [µM] | CC50 [12] [µM] | CC50 at 5 days (in vitro) [µM] | also measured |
| --- | --- | --- | --- | --- | --- | --- | --- | --- | --- | --- | --- | --- | --- | --- | --- | --- | --- | --- | --- |
| CC(=O)NC1=CC(=O)c2ccc(-c3nc(C(N)=O)cc4c3[nH]c3ccccc34)nc2C1=O [Compound 16] | −52.3% | −78.4% | −60.4% | −52.1% | −45.1% | −55.5% | 4.09 | 2.57 | 3.91 | −18.0% | 4.29 | −72.9% | −28.3% |  |  |  |  |  | % inh. Trial 1 (HIV-RT; LA Conc. 3.0 (unit uncertain)): 0%; % inh. Trial 2 (HIV-RT; LA Conc. 3.0 (unit uncertain)): 3%; % inh. Trial 3 (HIV-RT; LA Conc. 3.0 (unit uncertain)): 12%; % inh. ave. (HIV-RT; LA Conc. 3.0 (unit uncertain)): 5.0%; % inh. Trial 1 (HIV-RT; LA Conc. 6.0 (unit uncertain)): 26%; % inh. Trial 2 (HIV-RT; LA Conc. 6.0 (unit uncertain)): 33%; % inh. Trial 3 (HIV-RT; LA Conc. 6.0 (unit uncertain)): 30%; % inh. ave. (HIV-RT; LA Conc. 6.0 (unit uncertain)): 29.7%; % inh. Trial 1 (HIV-RT; LA Conc. .5 (unit uncertain)): 0%; % inh. Trial 2 (HIV-RT; LA Conc. .5 (unit uncertain)): 0%; % inh. Trial 3 (HIV-RT; LA Conc. .5 (unit uncertain)): 0%; % inh. ave. (HIV-RT; LA Conc. .5 (unit uncertain)): 0.0%; CC50 [3]: 0.9 µM; CC50 [4]: 0.22 µM; CC50 [5]: 0.35 µM; CC50 [6]: 0.23 µM; CC50 [8]: 0.21 µM; Selectivity: sensitivity of one of the seven renal cancer cell lines relative to average sensitivity of the fifty-five cell lines (Renal Cancer cell lines; at GI50, TGI and/or LC50, initial screen): One of the seven renal cancer cell lines was about 100 times; selectivity for renal cancer (in words) (Renal Cancer cell lines; repeat cancer screen): did not exhibit the selectivity for renal cancer |
| O=Cc1ccc2c(n1)C(=O)C(NC(=O)CCl)=CC2=O [Compound 24, 7-CHLOROACETAMIDO-2-FORMYLQUINOLINE-5,8-DIONE] |  |  |  |  |  |  | 1.125 | 0.6 | 1.06 |  | 1.7 |  |  | 2.1 | 3.2 | 5.8 | 3.4 | 3.6 |  |
| CCCC(=O)NC1=CC(=O)c2ccc(C=O)nc2C1=O [Compound 26, 7-BUTYRAMIDO-2-FORMYLQUINOLINE-5,8-DIONE] | −50.9% | −79.0% | −61.0% | −17.9% | −35.0% | −63.2% | <0.9 | <0.9 | 0.9 | −81.5% | 1.2 | −93.0% | −10.8% | 2.5 | > 3.3 | > 3.3 | 3.3 | 3 |  |
| COC1=C(N)C(=O)c2nc(-c3nc(C(=O)O)c(C)c(-c4ccc(OC)cc4O)c3N)ccc2C1=O [10′-Desmethoxystreptonigrin, 10′-desmethoxystreptonigrin] |  |  |  |  |  |  |  |  |  |  |  |  |  |  |  |  |  |  | activity relative to streptonigrin in an assay for the inhibition of the farnesylation of ras oncogene p21 protein (ras oncogene p21 protein): three times more active than streptonigrin |
| CCCC(=O)NC1=CC(=O)c2ccc(C)nc2C1=O [Compound 30, 7-BUTYRAMIDO-2-METHYLQUINOLINE-5,8-DIONE] | −71.1% | −85.1% | −93.8% | −66.6% | −62.7% | −86.7% | <0.6 | <0.6 | 0.7 | −79.0% | 0.9 | −92.0% | −21.7% | 2.2 | > 3.3 | > 3.3 | 2.7 | 2 | selectivity for leukemia (in words) (Leukemia cell lines; repeat cancer screen): showed selectivity for leukemia |
| CCCCCCCCOC(=O)c1cc2c([nH]c3ccccc32)c(-c2ccc3c(n2)C(=O)C(NC(C)=O)=CC3=O)n1 [Compound 21] | +13.0% | +58.6% | +59.3% | +62.3% | +62.9% | +47.0% |  |  |  | +69.5% |  | +67.5% | +20.3% |  |  |  |  |  | CC50 [4]: 9 µM; CC50 [5]: 0.25 µM; selective toxicity against ras^K oncogene bearing tumor cells as compared to the normal, non-transformed cells ([5]; LC50 NRKE divided by LC50 K/1): 132 fold; CC50 [6]: 7.6 µM; Number Dead Number Treated ([13]; 150 Mg/Kg/Day IP once daily for 8 days): 0/7; Number Dead Number Treated ([13]; 300 Mg/Kg/Day IP once daily for 8 days): 0/7; toxicity in tumor-bearing nude mice (in words) ([13]; even at doses up to 300 mg/kg/day): little or no toxicity; tumor growth inhibition in vivo (in words) ([13]; summary of Table X): excellent tumor growth inhibition |
| CC(=O)NC1=CC(=O)c2ccc(C)nc2C1=O [Compound 27, 7-ACETAMIDO-2-METHYLQUINOLINE-5,8-DIONE] |  |  |  |  |  |  | 0.8 | 0.3 | 0.9 |  | 1.8 |  |  | 2.6 | 5.7 | 14 | 5 | 2.4 | CC50 [9, 16]: 2 µM; CC50 ([11]; 120 h): 5.9 µM; CC50 ([3]; rat, 5 days): 4.6 µM; CC50 ([12]; 120 h): 4.4 µM |
| Cc1ccc2c(n1)C(=O)C(NC(=O)CCl)=CC2=O [Compound 28, 7-CHLOROACETAMIDO-2-METHYLQUINOLINE-5,8-DIONE] |  |  |  |  |  |  | 0.9 | 0.48 | 1.1 |  | 1.4 |  |  | 2.3 | 3.4 | 6.6 | 2.8 | 3.2 |  |
| CC(=O)NC1=CC(=O)c2ccc(C=O)nc2C1=O [Compound 23, 7-ACETAMIDO-2-FORMYLQUINOLINE-5,8-DIONE] |  |  |  |  |  |  | 0.7 | 0.4 | 0.9 |  | 1.35 |  |  | 3.7 | 7 | 12.5 | 5.5 |  | CC50 [9, 16]: 1.2 µM; CC50 ([11]; 120 h): 2.6 µM; CC50 ([12]; 120 h): 2.5 µM |
| Cc1c(C(=O)O)nc(-c2ccc3c(n2)C(=O)C(N)=CC3=O)c2[nH]c3ccccc3c12 [lavendamycin, Lavendamycin] |  |  |  |  |  |  |  |  |  |  |  |  |  |  |  |  |  |  | dose that is lethal [14]: 100 mg/kg/day |
